From ChEMBL document CHEMBL1201862, “PubChem BioAssay data set” (2004)
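Dose response: 5 concentrations. Exposure: 48 h. Format: 96-well plates. Endpoint: linear interpolation; highest concentration if not reached. At the GI50, growth is halved.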 Active and inactive are the calls of the source. No stated cut-off is given here; in the data, active = GI50 up to about 1.1 µM and inactive = higher.

How the values were obtained:
Assay in all cases: inhibition of tumour cell growth, NCI panel, 48 h
DLD-1 = test system: DLD-1
DMS-114 = test system: DMS-114
DMS-273 = test system: DMS-273
HOP-18 = test system: HOP-18
KM-20L2 = test system: KM-20L2
M19-MEL = test system: M19-MEL
RXF 631 = test system: RXF 631
SNB-78 = test system: SNB-78
XF498 = test system: XF498

Measured: GI50

Cc1cc(N(CCC#N)CCC#N)ccc1/C=C1\N=C(c2cc([N+](=O)[O-])ccc2Cl)N(NC(=O)c2ccc(/N=C\c3ccc(N(CCC#N)S(C)(=O)=O)cc3C)cc2)C1=O
inactive: DLD-1 63.5 µM | DMS-114 85.5 µM | DMS-273 41.5 µM | HOP-18 > 100 µM | KM-20L2 58.2 µM | M19-MEL 73.1 µM | RXF 631 > 100 µM | SNB-78 > 100 µM | XF498 > 100 µM
